Results reported in ChEMBL document CHEMBL3045355, “Synthesis of a New Series of 4-Aryl-1,4-Dihydropyridines with Calcium Channel Blocking and Vasodilatory Activity” (Med Chem Res, 2012).

What was measured:
[1] = biological target: T1, Voltage-gated L-type calcium channel (Rattus norvegicus, UniProt P22002+Q02485+P27732); assay: Inhibition of L-type calcium channel in Rattus norvegicus Wistar (rat) thoracic aorta assessed as relaxation of KCl-induced vasoconstriction after 30 min relative to control; assay type: tissue-based
[2] = biological target: T1, Voltage-gated L-type calcium channel; assay: Inhibition of L-type calcium channel in neonatal rat cortical neurons assessed as inhibition of veratridine-induced intracellular calcium level incubated for 30 min followed by veratridine induction for 2 min by fluorimetric analysis; assay type: cell-based
[3] = biological target: T1, Voltage-gated L-type calcium channel; assay: Inhibition of L-type calcium channel in Rattus norvegicus Wistar (rat) thoracic aorta assessed as relaxation of phenylephrine-induced vasoconstriction after 30 min relative to control; assay type: tissue-based

| SMILES | IC50 [1] | pIC50 [1] | IC50 [2] | IC50 [3] | pIC50 [3] |
| --- | --- | --- | --- | --- | --- |
| CCOC(=O)C1=C(C)NC(C)=C(C(=O)OC)C1c1cccc(OCC(=O)N2CCCCC2)c1 (configuration not stated) | 1.25 µM | 5.9 |  |  |  |
| CCOC(=O)C1=C(C)NC(C)=C(C(=O)OC)C1c1ccc(OCC(=O)OC)c(OC)c1 (configuration not stated) | 12.8 µM | 4.89 |  |  |  |
| CCOC(=O)C1=C(C)NC(C)=C(C(=O)OC)C1c1ccc(OCC(=O)N2CCCCC2)c(OC)c1 (configuration not stated) | 3.89 µM | 5.41 |  |  |  |
| COC(=O)C1=C(C)NC(C)=C(C(=O)OC)C1c1ccc(OCC(=O)N2CCCC2)c(OC)c1 |  |  | 5.6 µM | 0.83 µM | 6.08 |
| COC(=O)C1=C(C)NC(C)=C(C(=O)OC)C1c1ccc(OCC(=O)N2CCCCC2)c(OC)c1 |  |  | 10 µM |  |  |
| COC(=O)C1=C(C)NC(C)=C(C(=O)OC)C1c1ccc(OCC(=O)N2CCN(C)CC2)c(OC)c1 |  |  | 9.1 µM | 6.91 µM | 5.16 |
| COC(=O)C1=C(C)NC(C)=C(C(=O)OC)C1c1ccc(OCC(=O)n2ccnc2)c(OC)c1 |  |  | 10.1 µM |  |  |
| COC(=O)C1=C(C)NC(C)=C(C(=O)OC)C1c1ccc(OCC(=O)NC(C)(C)C)c(OC)c1 |  |  | 2.5 µM |  |  |
| COC(=O)C1=C(C)NC(C)=C(C(=O)OC)C1c1ccc(OCC(=O)N2CCCC(C)C2)c(OC)c1 (configuration not stated) |  |  | 10 µM | 1.73 µM | 5.76 |
| COC(=O)COc1ccc(C2C(C(=O)OC)=C(C)NC(C)=C2C(=O)OC)cc1 |  |  | 2.1 µM |  |  |
| COC(=O)COc1cccc(C2C(C(=O)OC)=C(C)NC(C)=C2C(=O)OC)c1 |  |  | 10 µM | 1.44 µM | 5.84 |
| COC(=O)C1=C(C)NC(C)=C(C(=O)OC)C1c1cccc(OCC(=O)N2CCOCC2)c1 |  |  | 9.9 µM | 0.64 µM | 6.19 |
| COC(=O)C1=C(C)NC(C)=C(C(=O)OC)C1c1cccc(OCC(=O)N2CCCC2)c1 |  |  | 3.6 µM | 4.57 µM | 5.34 |
| COC(=O)C1=C(C)NC(C)=C(C(=O)OC)C1c1cccc(OCC(=O)N2CCCCC2)c1 |  |  | 10 µM |  |  |
| COC(=O)C1=C(C)NC(C)=C(C(=O)OC)C1c1cccc(OCC(=O)N2CCN(C)CC2)c1 |  |  | 10 µM | 9.54 µM | 5.02 |
